Test results published in patent US20220142967A1, “Methods and Compositions for the Treatment of Multiple Sclerosis” (SYMBIONYX PHARMACEUTICALS INC, priority 2018, published 2022).
Structures can show the parent of a compound that is named as a salt.

Legend:
[1] = tested on: cultured human keratinocytes (KCs); assay: Microarray genome-wide expression, IDMF vs. CTL, MS-associated genes; format: cell-based
Description: RNA sample processing and microarray hybridizations were performed using the Affymetrix Human Genome U133 Plus 2.0 array platform. DNA microarray samples evaluated included IDMF- and vehicle-treated KCs (n=2 replicates per group). Samples were normalized using the robust multichip average (RMA) algorithm. Identification of probe sets with detectable expression was performed using the MAS 5.0 method, which identifies probe sets with above-background expression based upon the Wilcoxon signed rank test. To limit redundancy in downstream analyses, a single probe set was chosen to represent each protein-coding human gene featured on the microarray platform. This representative was chosen as the probe set with highest expression for each protein-coding human gene. These probe sets were then additionally filtered to include only those with detectable expression in at least 1 of the 4 samples (P<0.05, Wilcoxon signed rank test). Overall, this yielded a total of 12330 protein-coding genes that were included in analyses, with each gene represented by a single representative probe set. Bayesian linear models and moderated t-statistics were then used to evaluate differential expression for each of the 12330 genes (IDMF vs. CTL treatment; R package: limma). To control the false discovery rate (FDR), raw p-values generated from linear model analyses were adjusted using the Benjamini-Hochberg method.
Genes associated with multiple sclerosis were identified based upon four established database sources: (1) the NHGRI-EBI genome-wide association (GWA) study catalogue, (2) the Disease Ontology (DO) database, (3) the DisGeNET database, and (4) the Medical Subject Heading (MESH) database. While there is some overlap between the various databases, the variation in identified genes from one database to the other reflects the fact that the science is still developing and has uncertainties. Nevertheless, as discussed below, efforts were undertaken to hone in on genes common to multiple databases. […]

[2] = tested on: cultured astrocytes; assay: RNA-seq of cultured astrocytes compared with MS patient white matter astrocytes (GSE83670); format: cell-based, human
Description: Previously, Waller et al. 2016 (J Neuroimmunol 299:139-146) used laser capture microdissection (LCM) to isolate astrocytes from normal appearing white matter in MS patients and CTL subjects (GEO dataset GSE83670; PMID: 27125112).
cDNA sequencing was performed by the University of Michigan sequencing core facility (50 cycle single end Illumina HiSeq 2000). The FASTX-Toolkit was used to filter reads by removing low quality sequences and initial quality assessments were performed using FastQC. Quality-filtered reads were mapped to the human genome (hg38/GRCh38, UCSC) using tophat2 with default settings, except multi-mapping of reads to multiple genome locations was disallowed (settings: -g 1 —no-coverage-search). The hg38/GRCh38 genome is the most recent release available from UCSC. HTSeq was used to tabulate the number of reads mapping to each genome feature and Cufflinks was used to calculate FPKM estimates and associated confidence intervals. RSeQC was used to assess quality of mapping and calculate the percentage of mapped reads. The negative binomial model (edgeR) was used to evaluate differential expression, with read counts normalized using the weighted trimmed mean of M-values method, and dispersions estimated using the Cox-Reid (CR)-adjusted likelihood approach. Differential expression analyses were performed using genes with detectable expression in at least 1 of 4 samples involved in a given comparison. A gene was considered to have detectable expression in a sample if the count per million mapped reads (cpm) estimate was greater than 0.20 and if the lower bound of the FPKM 95% confidence interval was greater than zero.
FIG. 3 presents in scatterplot and histogram format the results of the study on the astrocytes. Scatterplots (A) and (D) compare fold change (FC) estimates in DMF-treated (A) and IDMF-treated (D) astrocytes to LCM-dissected astrocytes in MS patients and healthy controls (CTLs). Each point represents a protein-coding gene and the light colored ellipses outline the 90% of genes closest to the bivariate mean based upon the Mahalanobis distance. The Spearman rank correlation coefficient estimate is shown (upper-left). The proportion of genes within each quadrant is indicated in the upper margin (P<0.05, Fisher's exact test), wherein the quadrants are defined by a vertical and horizontal line through the “1” in each axis with the proportion corresponding, left to right to the upper left, the upper right, the lower right and lower left quadrants, respectively. Gene set overlap is presented in (B), (C), (E) and (F) wherein genes within each set were altered with a P<0.05 threshold. P-values from the test of overlap significance are shown (bottom margin, Fisher's exact test). […]

[3] = genes common to at least two of four databases

COC(=O)/C=C/C(=O)O[C@H]1CO[C@H]2[C@@H]1OC[C@H]2OC(=O)/C=C/C(=O)OC [IDMF, isosorbide di-(methyl fumarate)]
average fold-change (IDMF/CTL) of MS-associated genes vs. randomly sampled gene sets ([1]; 76 MS-associated genes from the Disease Ontology (DO) database, P<0.001): significantly lower | MS-associated genes most strongly decreased [1, 3]: ICAM1, PLAT, and MMP9 | MS-associated genes most strongly increased [1, 3]: POPDC3, MMP3, and DDAH1 | number of genes decreased by IDMF (P<0.05) and increased in MS (P<0.05) [2]: 82 genes | protein-coding genes increased by IDMF (FC>1.00) but decreased in MS patients (FC<1.00) [2]: 35.08% | correlation of genome-wide expression responses with those observed in MS patients (Spearman r) ([2]; cultured astrocytes vs. LCM-dissected MS patient astrocytes): negatively correlated
